# Measurements: patent publication US20110034472A1, “Novel Compounds for Treatment of Cancer and Disorders Associated With Angiogenesis Function” (UNIVERSITY OF SOUTHERN CALIFORNIA, priority 2004, published 2011)
# Read-outs that look alike come from different tables or passages of the source.
# How the values were obtained:
# HEY ovarian cancer cells = test: MTT cytotoxicity assay, HEY; assay type: cell-based, human; conditions: read-out: 50% Cytotoxic concentration (IC50)
# Description: The sensitivity of a panel of seven human cancer cell lines to SC144 was assessed by MTT-assay. […] The sensitivity towards SC144 was time- and dose-dependent.
# Cytotoxicity was assessed by a 3-(4,5-dimethylthiazol-2-yl)-2,5-diphenyltetrazolium bromide assay as previously described (Carmichael et al. (1987) Cancer Res. 47:936-42). Briefly, cells were seeded in 96-well microtiter plates (PC3 and DU145 at 5,000 cells/well and LNCaP at 10,000 cells/well; breast and ovarian cells at 4,000 cells/well) and allowed to attach. Cells were subsequently treated with a continuous exposure to the corresponding drug for 72 hours. A 3-(4,5-dimethylthiazol-2-yl)-2,5-diphenyltetrazolium bromide solution (at a final concentration of 0.5 mg/mL) was added to each well and cells were incubated for 4 hours at 37° C. After removal of the medium, DMSO was added and the absorbance was read at 570 nm. All assays were done in triplicate. The IC50 was then determined for each drug from a plot of log(drug concentration) versus percentage of cell kill.
# MDA-MB-435 cells = test: MTT assay, continuous drug exposure for 48 hours (Table 3); assay type: cell-based, human; conditions: for IC80: MDA-MB-435, read-out: CC80
# [1] = Homo sapiens, HEY ovarian cancer cells
SMILES,IC50 (HEY ovarian cancer cells; [1]),other results
O=C(CSc1nc2ccccc2c(=O)n1CC1CCCO1)NNC(=O)c1ccccc1O (centres unmarked),2 µM,–
N.N.[Cl][Pt][Cl] [Cisplatin],–,CC50 (MDA-MB-435 cells): 39 ± 1.41 µM; CC80 (MDA-MB-435 cells): 71 ± 1.4 µM
COc1cc([C@@H]2c3cc4c(cc3[C@@H](O[C@@H]3O[C@@H]5CO[C@@H](C)O[C@H]5[C@H](O)[C@H]3O)[C@H]3COC(=O)[C@H]23)OCO4)cc(OC)c1O [Etoposide],–,"CC50 (MDA-MB-435 cells; Homo sapiens, MDA-MB-435): 52.5 ± 3.5 µM; IC80 (MDA-MB-435 cells; Homo sapiens): 300 ± 106 µM"
O=C1c2c(O)ccc(O)c2C(=O)c2c(NCCNCCO)ccc(NCCNCCO)c21 [Mitoxantrone],–,"CC50 (MDA-MB-435 cells; Homo sapiens, MDA-MB-435): 4.5 ± 1.4 µM; IC80 (MDA-MB-435 cells; Homo sapiens): 7.3 ± 0.35 µM"
CCCn1c(=O)c(C(=O)NNC(=O)c2ccccc2)c(O)c2ccccc21 [SC201],2 µM,–
CCCn1c(=O)c(C(=O)NNC(=O)CC(=O)OCC)c(O)c2ccccc21 [SC202],–,IC50 (HEY ovarian cancer cells; HEY ovarian cancer cells): 1 µM
CCn1c(=O)c(C(=O)NNC(=O)Cc2ccccc2)c(O)c2ccccc21 [SC203],6 µM,–
COCc1c(C(=O)NNC(=O)c2ccccc2F)nnn1-c1nonc1N [SC204],–,IC50 (HEY ovarian cancer cells; HEY ovarian cancer cells): 1 µM
CCn1c(=O)c(C(=O)NNC(=O)c2ccc(C)cc2)c(O)c2ccccc21 [SC205],6 µM,–
CCCn1c(=O)c(C(=O)NNC(=O)c2ccc(C)cc2)c(O)c2ccccc21 [SC206],–,IC50 (HEY ovarian cancer cells; HEY ovarian cancer cells): 1 µM
CCn1c(=O)c(C(=O)NNC(=O)c2cccc(C)c2)c(O)c2ccccc21 [SC207],6 µM,–
O=C(CSc1nnc(-c2ccccc2O)o1)NNC(=O)Cc1ccccc1 [SC208],4 µM,–
CC1CCN(S(=O)(=O)c2ccc(C(=O)NNC(=O)C3CC3)cc2)CC1 [SC209],8 µM,–
O=C(COc1ccc2ccccc2c1)NNC(=O)c1cc2ccccc2cc1O [SC210],–,IC50 (HEY ovarian cancer cells; HEY ovarian cancer cells): 1 µM
CCc1cc2ccccc2nc1SCC(=O)NNC(=O)c1ccccc1 [SC211],10 µM,–
CSc1nc(NNC(=O)c2ccco2)c2c3c(sc2n1)COC(C)(C)C3 [SC212],–,IC50 (HEY ovarian cancer cells; HEY ovarian cancer cells): 1 µM
Cc1cccc(C(=O)NNC(=O)CSc2nc3ccccc3cc2C)c1 [SC213],12 µM,–
CCn1c(=O)c(C(=O)NNC(=O)c2ccccc2[N+](=O)[O-])c(O)c2ccccc21 [SC214],–,IC50 (HEY ovarian cancer cells; HEY ovarian cancer cells): 1 µM
Cc1cc(C)cc(OCC(=O)NNC(=O)c2cc3ccccc3oc2=O)c1 [SC215],12 µM,–
CCn1c(=O)c(C(=O)NNC(=O)c2ccc([N+](=O)[O-])cc2)c(O)c2ccccc21 [SC216],5 µM,–
C=C(C)CNC(=S)NNC(=O)CCn1c2ccccc2c2ccccc21 [SC217],4 µM,–

SMILES,IC50 (HEY ovarian cancer cells; [1]),other results
CCn1c(=O)c(C(=O)NNC(=O)c2cccc([N+](=O)[O-])c2)c(O)c2ccccc21 [SC218],4 µM,–
O=C(NNC(=O)c1c(O)c2ccccc2[nH]c1=O)c1ccccc1[N+](=O)[O-] [SC219],2 µM,–
CC1=C(C)C2c3nnc(SCC(=O)NNC(=O)c4ccco4)n3C=NC2S1 (centres unmarked) [SC220],4 µM,–
O=C(NNC(=O)c1c(O)c2ccccc2[nH]c1=O)c1cccc([N+](=O)[O-])c1 [SC221],4 µM,–
O=C(CSc1nc2ccccc2cc1Cc1ccccc1)NNC(=O)c1ccco1 [SC222],8 µM,–
COc1ccc(C(=O)NNC(=O)c2cc3ccccc3oc2=O)cc1OC [SC223],4 µM,–
O=C(CSc1nc(C2CC2)nc2sc3c(c12)CCCC3)NNC(=O)c1ccco1 [SC224],4 µM,–
CCn1c(=O)c(C(=O)NNC(=O)c2ccccc2F)c(O)c2ccccc21 [SC225],2 µM,–
COc1ccc(C(=O)NNC(=O)CSc2ncnc3sc4c(c23)CCCC4)cc1 [SC226],5 µM,–
CCc1cc2ccc(C)cc2nc1SCC(=O)NNC(=O)c1ccco1 [SC227],6 µM,–
CCC(=O)NNc1nc2c(c(=O)n1Cc1ccccc1)C1(CCCC1)Cc1ccccc1-2 [SC228],6 µM,–
CC1(C)Cc2c(sc3nc(NNC(=O)c4ccccc4)[nH]c(=O)c23)CO1 [SC229],8 µM,–
Cc1cccc(C(O)(C(=O)NNC(=O)/C(O)=C/C(=O)c2ccccc2)c2cccc(C)c2)c1 [SC230],–,IC50 (HEY ovarian cancer cells; Homo sapiens): 3 µM
CCCCCCCC(=O)NNC(=O)c1c(O)c2ccccc2n(CC)c1=O [SC231],3 µM,–
CC1=C(C)C2c3nnc(SCC(=O)NNC(=O)c4ccco4)n3C(C(C)C)=NC2S1 (centres unmarked) [SC232],6 µM,–
CCCCCCCCC(=O)NNC(=O)c1c(O)c2ccccc2n(C)c1=O [SC233],5 µM,–
Cc1cccc(C(=O)NNC(=O)CSc2nc(-c3ccccc3)nc3ccc(F)cc23)c1 [SC234],8 µM,–
CCCCCCC(=O)NNC(=O)c1c(O)c2ccccc2n(CCC)c1=O [SC235],7 µM,–
CCCCCCCCCC(=O)NNC(=O)c1c(O)c2ccccc2[nH]c1=O [SC237],7 µM,–
O=C(NNC(=O)c1cc2ccccc2oc1=O)c1ccc(S(=O)(=O)N2CCCCC2)cc1 [SC238],3 µM,–
O=C(NNC(=O)c1cc2ccccc2oc1=O)c1ccc(S(=O)(=O)N2CCOCC2)cc1 [SC239],3 µM,–

SMILES,IC50 (HEY ovarian cancer cells; [1]),other results
Cc1ccc(-n2c(SCC(=O)NNC(=O)c3ccccc3O)nnc2-c2ccccc2)cc1 [SC240],5 µM,–
O=C(CSc1nnc(-c2ccccc2)n1Cc1ccccc1)NNC(=O)c1ccccc1O [SC241],5 µM,–
COc1ccc2nc(C)cc(SCC(=O)NNC(=O)COc3cccc4ccccc34)c2c1 [SC242],5 µM,–
Cc1ccc(C(=O)n2nnc3c(NNC(=O)COc4ccc(F)cc4)nc(C4CC4)nc32)cc1 [SC243],6 µM,–
O=C(CSC1=NNC2C3=C(N=C(C4CC4)N12)S1=C(CCCC1)C3)NNC(=O)C1C=CC=CO1 (centres unmarked) [SC244],15 µM,–
Cc1ccc(-n2c(SCC(=O)NNC(=O)c3ccccc3O)nnc2-c2ccccc2O)cc1 [SC245],–,IC50 (HEY ovarian cancer cells; HEY ovarian cancer cells): 1 µM
O=C(CSc1nnc(-c2ccccc2O)n1Cc1ccccc1)NNC(=O)c1ccccc1O [SC246],–,IC50 (HEY ovarian cancer cells; HEY ovarian cancer cells): 1 µM
O=C(CSc1nnc2c3c4c(sc3ncn12)CCCC4)NNC(=O)c1ccco1 [SC247],14 µM,–
O=C(CSc1nnc(Cc2ccccc2)n1-c1cccc(Cl)c1)NNC(=O)c1ccccc1O [SC248],2 µM,–
Cc1ccc(-n2c(SCC(=O)NNC(=O)Cc3ccccc3)nc3sc4c(c3c2=O)CCCC4)cc1 [SC249],2 µM,–
Cc1ccc(C(=O)NNC(=O)CSc2nnc3c4c5c(sc4nc(C4CC4)n23)CCCC5)cc1 [SC250],2 µM,–
O=C(NNC(=O)c1cccs1)c1ccco1 [SC251],15 µM,–
O=C(NNC(=O)c1cccs1)c1ccccn1 [SC252],16 µM,–
CCn1c(NNC=O)nc2c1c(=O)[nH]c(=O)n2C [SC253],12 µM,–
Cc1occc1C(=O)NNC(=O)c1ccccc1F [SC254],17 µM,–
O=C(NNC(=O)c1ccccc1O)c1cccs1 [SC255],14 µM,–
CCC(=O)NNC(=O)c1c(O)c2ccccc2[nH]c1=O [SC256],3 µM,–
O=C(NNC(=O)c1cccs1)c1ccc(O)c(O)c1 [SC257],2 µM,–
O=C(/C=C/NNC(=O)c1ccccc1O)c1ccccc1 [SC258],2 µM,–
O=C(O)CCCC(=O)NNC(=O)c1ccccc1Cl [SC259],18 µM,–
COc1ccccc1C(=O)NNC(=O)c1ccccc1O [SC260],10 µM,–

SMILES,IC50 (HEY ovarian cancer cells; [1]),other results
O=C(NNC(=O)c1cccc2ccccc12)c1cccs1 [SC261],11 µM,–
O=C(NNC(=O)c1cccs1)c1ccc2ccccc2c1 [SC262],11 µM,–
O=C(O)/C=C/C(=O)NNC(=O)c1cc(-c2ccccc2)[nH]n1 [SC263],5 µM,–
O=C(NNC1=CS(=O)(=O)c2ccccc21)c1ccccc1 [SC264],5 µM,–
O=C(NNC1=NS(=O)(=O)c2ccccc21)c1ccncc1 [SC265],5 µM,–
O=C(NNC(=O)c1cc2ccccc2oc1=O)c1ccncc1 [SC266],7 µM,–
O=C(NNC(=O)c1c(O)c2ccccc2[nH]c1=O)c1ccccc1 [SC268],10 µM,–
O=C(CCc1ccccc1)NNC(=O)c1ccc2ccccc2c1O [SC270],5 µM,–
O=C(COc1ccc2ccccc2c1)NNC(=O)c1ccccc1O [SC271],6 µM,–
COc1cccc(C(=O)NNC(=O)c2ccc3ccccc3c2O)c1 [SC272],7 µM,–
COc1ccccc1C(=O)NNC(=O)c1ccc2ccccc2c1O [SC273],11 µM,–
COc1ccccc1C(=O)NNC(=O)c1cc2ccccc2cc1O [SC274],11 µM,–
COc1ccc(C(=O)NNC(=O)c2ccc3ccccc3c2O)cc1 [SC275],12 µM,–
COc1ccc(C(=O)NNC(=O)c2cc3ccccc3cc2O)cc1 [SC276],13 µM,–
O=C(Cc1ccccc1)NNC(=O)c1c(O)c2ccccc2[nH]c1=O [SC277],14 µM,–
Cc1ccc(C(=O)NNC(=O)c2c(O)c3ccccc3[nH]c2=O)cc1 [SC278],13 µM,–
O=C(NNC(=O)c1c(O)c2ccccc2[nH]c1=O)c1ccccc1F [SC279],6 µM,–
O=C(CCl)NNc1nc(-c2ccccc2)c2cc(Cl)ccc2n1 [SC280],6 µM,–
CC(=O)O[C@H]1C(=O)[C@@]2(C)[C@H]([C@H](OC(=O)c3ccccc3)[C@]3(O)C[C@H](OC(=O)[C@H](O)[C@@H](NC(=O)c4ccccc4)c4ccccc4)C(C)=C1C3(C)C)[C@]1(OC(C)=O)CO[C@@H]1C[C@@H]2O [Taxol],–,"CC50 (MDA-MB-435 cells; Homo sapiens, MDA-MB-435): 0.04 ± 0.003 µM; IC80 (MDA-MB-435 cells; Homo sapiens): 0.07 ± 0.01 µM"
